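Interpolation was linear, between the two tested concentrations surrounding the appropriate level; five concentrations were tested over 48 hours in 96-well plates. Definition used: TGI = concentration required for complete inhibition of growth.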
How the values were obtained:
Test in all cases: DTP human tumour cell line panel, 48 h
786-0 renal = tested on: 786-0 renal
A498 renal = tested on: A498 renal
A549 NSCLC = tested on: A549 NSCLC
ACHN renal = tested on: ACHN renal
BT-549 breast = tested on: BT-549 breast
CAKI-1 renal = tested on: CAKI-1 renal
CCRF-CEM leukemia = tested on: CCRF-CEM leukemia
COLO 205 colon = tested on: COLO 205 colon
DU-145 prostate = tested on: DU-145 prostate
EKVX NSCLC = tested on: EKVX NSCLC
HCT-116 colon = tested on: HCT-116 colon
HCT-15 colon = tested on: HCT-15 colon
HOP-92 NSCLC = tested on: HOP-92 NSCLC
HS 578T breast = tested on: HS 578T breast
HT29 colon = tested on: HT29 colon
IGROV1 ovarian = tested on: IGROV1 ovarian
K-562 leukemia = tested on: K-562 leukemia
KM12 colon = tested on: KM12 colon
LOX IMVI melanoma = tested on: LOX IMVI melanoma
M14 melanoma = tested on: M14 melanoma
MALME-3M melanoma = tested on: MALME-3M melanoma
MDA-MB-231 breast = tested on: MDA-MB-231 breast
MDA-MB-435 = tested on: MDA-MB-435
MDA-N = tested on: MDA-N
MOLT-4 leukemia = tested on: MOLT-4 leukemia
NCI-H226 lung = tested on: NCI-H226 lung
NCI-H23 lung = tested on: NCI-H23 lung
NCI-H522 lung = tested on: NCI-H522 lung
NCI/ADR-RES ovarian = tested on: NCI/ADR-RES ovarian
OVCAR-3 ovarian = tested on: OVCAR-3 ovarian
OVCAR-4 ovarian = tested on: OVCAR-4 ovarian
OVCAR-5 ovarian = tested on: OVCAR-5 ovarian
OVCAR-8 ovarian = tested on: OVCAR-8 ovarian
PC-3 prostate = tested on: PC-3 prostate
RPMI-8226 leukemia = tested on: RPMI-8226 leukemia
RXF 393 renal = tested on: RXF 393 renal
SF-268 CNS = tested on: SF-268 CNS
SF-295 CNS = tested on: SF-295 CNS
SK-MEL-2 melanoma = tested on: SK-MEL-2 melanoma
SK-MEL-28 melanoma = tested on: SK-MEL-28 melanoma
SK-MEL-5 melanoma = tested on: SK-MEL-5 melanoma
SK-OV-3 ovarian = tested on: SK-OV-3 ovarian
SN12C renal = tested on: SN12C renal
SNB-19 CNS = tested on: SNB-19 CNS
SNB-75 CNS = tested on: SNB-75 CNS
SR leukemia = tested on: SR leukemia
SW-620 colon = tested on: SW-620 colon
T-47D breast = tested on: T-47D breast
TK-10 renal = tested on: TK-10 renal
U251 CNS = tested on: U251 CNS
UACC-257 melanoma = tested on: UACC-257 melanoma
UACC-62 melanoma = tested on: UACC-62 melanoma
UO-31 renal = tested on: UO-31 renal
HCC-2998 colon = tested on: HCC-2998 colon
HL-60(TB) leukemia = tested on: HL-60(TB) leukemia
HOP-62 NSCLC = tested on: HOP-62 NSCLC
MCF7 breast = tested on: MCF7 breast
NCI-H460 lung = tested on: NCI-H460 lung
SF-539 CNS = tested on: SF-539 CNS

For `CC(=O)/C(=N\Nc1ccc(Cl)cc1)C(C)=Nc1ccc(C)cc1`, the TGI (786-0 renal) was over 100 µM, the TGI (A498 renal) was 85.2 µM and the TGI (A549 NSCLC) was over 100 µM. For the same molecule, the TGI (ACHN renal) was 61.3 µM, the TGI (BT-549 breast) was over 100 µM and the TGI (CAKI-1 renal) was over 100 µM. It also gave a TGI (CCRF-CEM leukemia) of 37.7 µM, a TGI (COLO 205 colon) of 43.1 µM and a TGI (DU-145 prostate) of over 100 µM. The TGI (EKVX NSCLC) was over 100 µM, the TGI (HCT-116 colon) was over 100 µM and the TGI (HCT-15 colon) was over 100 µM. For the same molecule, the TGI (HOP-92 NSCLC) was 37.4 µM, the TGI (HS 578T breast) was over 100 µM and the TGI (HT29 colon) was 61.3 µM. It also gave a TGI (IGROV1 ovarian) of over 100 µM, a TGI (K-562 leukemia) of over 100 µM and a TGI (KM12 colon) of over 100 µM. For the same molecule, the TGI (LOX IMVI melanoma) was over 100 µM, the TGI (M14 melanoma) was 58 µM and the TGI (MALME-3M melanoma) was 59.2 µM. It also gave a TGI (MDA-MB-231 breast) of over 100 µM, a TGI (MDA-MB-435) of over 100 µM and a TGI (MDA-N) of over 100 µM. For the same molecule, the TGI (MOLT-4 leukemia) was over 100 µM, the TGI (NCI-H226 lung) was 83.7 µM and the TGI (NCI-H23 lung) was over 100 µM. The TGI (NCI-H522 lung) was 66.7 µM, the TGI (NCI/ADR-RES ovarian) was over 100 µM and the TGI (OVCAR-3 ovarian) was 84.5 µM. The TGI (OVCAR-4 ovarian) was over 100 µM, the TGI (OVCAR-5 ovarian) was over 100 µM and the TGI (OVCAR-8 ovarian) was over 100 µM. It also gave a TGI (PC-3 prostate) of over 100 µM, a TGI (RPMI-8226 leukemia) of over 100 µM and a TGI (RXF 393 renal) of 95.8 µM. The TGI (SF-268 CNS) was over 100 µM, the TGI (SF-295 CNS) was over 100 µM and the TGI (SK-MEL-2 melanoma) was 40 µM. For the same molecule, the TGI (SK-MEL-28 melanoma) was over 100 µM, the TGI (SK-MEL-5 melanoma) was 38.8 µM and the TGI (SK-OV-3 ovarian) was over 100 µM. The TGI (SN12C renal) was over 100 µM, the TGI (SNB-19 CNS) was over 100 µM and the TGI (SNB-75 CNS) was over 100 µM. It also gave a TGI (SR leukemia) of over 100 µM, a TGI (SW-620 colon) of over 100 µM and a TGI (T-47D breast) of over 100 µM. It also gave a TGI (TK-10 renal) of over 100 µM, a TGI (U251 CNS) of over 100 µM and a TGI (UACC-257 melanoma) of over 100 µM. The TGI (UACC-62 melanoma) was over 100 µM and the TGI (UO-31 renal) was over 100 µM.

Work on `CCOC(=O)c1c(-c2ccccc2)c(OC)cn1C` yielded a TGI (786-0 renal) of over 10 µM, a TGI (A498 renal) of over 10 µM and a TGI (A549 NSCLC) of over 10 µM. For the same molecule, the TGI (ACHN renal) was over 10 µM, the TGI (BT-549 breast) was over 10 µM and the TGI (CAKI-1 renal) was over 10 µM. For the same molecule, the TGI (CCRF-CEM leukemia) was over 10 µM, the TGI (COLO 205 colon) was over 10 µM and the TGI (DU-145 prostate) was over 10 µM. The TGI (EKVX NSCLC) was over 10 µM, the TGI (HCC-2998 colon) was over 10 µM and the TGI (HCT-116 colon) was over 10 µM. The TGI (HCT-15 colon) was over 10 µM, the TGI (HL-60(TB) leukemia) was over 10 µM and the TGI (HOP-62 NSCLC) was over 10 µM. For the same molecule, the TGI (HS 578T breast) was over 10 µM, the TGI (HT29 colon) was over 10 µM and the TGI (IGROV1 ovarian) was over 10 µM. The TGI (K-562 leukemia) was over 10 µM, the TGI (KM12 colon) was over 10 µM and the TGI (LOX IMVI melanoma) was over 10 µM. It also gave a TGI (M14 melanoma) of over 10 µM, a TGI (MALME-3M melanoma) of over 10 µM and a TGI (MCF7 breast) of over 10 µM. For the same molecule, the TGI (MDA-MB-231 breast) was over 10 µM, the TGI (MDA-MB-435) was over 10 µM and the TGI (MDA-N) was over 10 µM. For the same molecule, the TGI (MOLT-4 leukemia) was over 10 µM, the TGI (NCI-H226 lung) was over 10 µM and the TGI (NCI-H23 lung) was over 10 µM. It also gave a TGI (NCI-H460 lung) of over 10 µM, a TGI (NCI-H522 lung) of over 10 µM and a TGI (NCI/ADR-RES ovarian) of over 10 µM. For the same molecule, the TGI (OVCAR-3 ovarian) was over 10 µM, the TGI (OVCAR-4 ovarian) was over 10 µM and the TGI (OVCAR-5 ovarian) was over 10 µM. For the same molecule, the TGI (OVCAR-8 ovarian) was over 10 µM, the TGI (PC-3 prostate) was over 10 µM and the TGI (RPMI-8226 leukemia) was over 10 µM. It also gave a TGI (RXF 393 renal) of over 10 µM, a TGI (SF-268 CNS) of over 10 µM and a TGI (SF-295 CNS) of over 10 µM. It also gave a TGI (SF-539 CNS) of over 10 µM, a TGI (SK-MEL-2 melanoma) of over 10 µM and a TGI (SK-MEL-28 melanoma) of over 10 µM. The TGI (SK-MEL-5 melanoma) was over 10 µM, the TGI (SK-OV-3 ovarian) was over 10 µM and the TGI (SN12C renal) was over 10 µM. For the same molecule, the TGI (SNB-19 CNS) was over 10 µM, the TGI (SNB-75 CNS) was over 10 µM and the TGI (SW-620 colon) was over 10 µM. The TGI (T-47D breast) was over 10 µM, the TGI (TK-10 renal) was over 10 µM and the TGI (U251 CNS) was over 10 µM. It also gave a TGI (UACC-257 melanoma) of over 10 µM and a TGI (UACC-62 melanoma) of over 10 µM.

`O=C1CC[C@@]23CC(=O)O[C@@H]2CCCC3C1` (some centres undefined) showed a TGI (786-0 renal) of over 100 µM, a TGI (A549 NSCLC) of over 100 µM and a TGI (ACHN renal) of over 100 µM. For the same molecule, the TGI (BT-549 breast) was over 100 µM, the TGI (CAKI-1 renal) was over 100 µM and the TGI (CCRF-CEM leukemia) was over 100 µM. For the same molecule, the TGI (COLO 205 colon) was over 100 µM, the TGI (DU-145 prostate) was over 100 µM and the TGI (EKVX NSCLC) was over 100 µM. It also gave a TGI (HCC-2998 colon) of over 100 µM, a TGI (HCT-116 colon) of over 100 µM and a TGI (HCT-15 colon) of over 100 µM. The TGI (HL-60(TB) leukemia) was over 100 µM, the TGI (HOP-62 NSCLC) was over 100 µM and the TGI (HS 578T breast) was over 100 µM. It also gave a TGI (HT29 colon) of over 100 µM, a TGI (IGROV1 ovarian) of over 100 µM and a TGI (K-562 leukemia) of over 100 µM. For the same molecule, the TGI (KM12 colon) was over 100 µM, the TGI (LOX IMVI melanoma) was over 100 µM and the TGI (M14 melanoma) was over 100 µM. It also gave a TGI (MALME-3M melanoma) of over 100 µM, a TGI (MCF7 breast) of over 100 µM and a TGI (MDA-MB-231 breast) of over 100 µM. For the same molecule, the TGI (MDA-N) was over 100 µM, the TGI (MOLT-4 leukemia) was over 100 µM and the TGI (NCI-H226 lung) was over 100 µM. It also gave a TGI (NCI-H23 lung) of over 100 µM, a TGI (NCI-H460 lung) of over 100 µM and a TGI (NCI-H522 lung) of over 100 µM. For the same molecule, the TGI (NCI/ADR-RES ovarian) was over 100 µM, the TGI (OVCAR-4 ovarian) was over 100 µM and the TGI (OVCAR-5 ovarian) was over 100 µM. The TGI (OVCAR-8 ovarian) was over 100 µM, the TGI (PC-3 prostate) was over 100 µM and the TGI (RPMI-8226 leukemia) was over 100 µM. The TGI (RXF 393 renal) was over 100 µM, the TGI (SF-268 CNS) was over 100 µM and the TGI (SF-295 CNS) was over 100 µM. It also gave a TGI (SF-539 CNS) of over 100 µM, a TGI (SK-MEL-2 melanoma) of over 100 µM and a TGI (SK-MEL-28 melanoma) of over 100 µM. It also gave a TGI (SK-MEL-5 melanoma) of over 100 µM, a TGI (SK-OV-3 ovarian) of over 100 µM and a TGI (SN12C renal) of over 100 µM. For the same molecule, the TGI (SNB-19 CNS) was over 100 µM, the TGI (SNB-75 CNS) was over 100 µM and the TGI (SR leukemia) was over 100 µM. It also gave a TGI (SW-620 colon) of over 100 µM, a TGI (T-47D breast) of over 100 µM and a TGI (TK-10 renal) of over 100 µM. For the same molecule, the TGI (U251 CNS) was over 100 µM, the TGI (UACC-257 melanoma) was over 100 µM and the TGI (UACC-62 melanoma) was over 100 µM. For the same molecule, the TGI (UO-31 renal) was over 100 µM.
